Measured values as given in ChEMBL document CHEMBL1777767, “Efficient radiosynthesis of 2-[(18)f]fluoroadenosine: a new route to 2-[(18)f]fluoropurine nucleosides” (ACS Med Chem Lett, 2010).

What was measured:
Assay type in all cases: ADME, organism-based
Settings in all cases: in vivo, 1 h
[1] = Biodistribution in Sprague-Dawley rat urine at 10.36 to 13.69 MBq, iv after 60 mins by gamma counting
Spleen = assay: Biodistribution in Sprague-Dawley rat spleen at 10.36 to 13.69 MBq, iv after 60 mins by gamma counting
Blood = assay: Biodistribution in Sprague-Dawley rat blood at 10.36 to 13.69 MBq, iv after 60 mins by gamma counting
Thymus = assay: Biodistribution in Sprague-Dawley rat thymus at 10.36 to 13.69 MBq, iv after 60 mins by gamma counting
Brain = assay: Biodistribution in Sprague-Dawley rat brain at 10.36 to 13.69 MBq, iv after 60 mins by gamma counting
Heart = assay: Biodistribution in Sprague-Dawley rat heart at 10.36 to 13.69 MBq, iv after 60 mins by gamma counting
Lung = assay: Biodistribution in Sprague-Dawley rat lung at 10.36 to 13.69 MBq, iv after 60 mins by gamma counting
Intestine = assay: Biodistribution in Sprague-Dawley rat intestine at 10.36 to 13.69 MBq, iv after 60 mins by gamma counting
Liver = assay: Biodistribution in Sprague-Dawley rat liver at 10.36 to 13.69 MBq, iv after 60 mins by gamma counting
Kidney = assay: Biodistribution in Sprague-Dawley rat kidney at 10.36 to 13.69 MBq, iv after 60 mins by gamma counting

SMILES: Nc1nc([18F])nc2c1ncn2[C@@H]1O[C@H](CO)[C@@H](O)[C@H]1O
- Drug uptake [1]: 6.7 % ID/g
- Drug uptake (Spleen): 2.85 % ID/g
- Drug uptake (Blood): 0.47 % ID/g
- Drug uptake (Thymus): 0.65 % ID/g
- Drug uptake (Brain): 0.06 % ID/g
- Drug uptake (Heart): 3.22 % ID/g
- Drug uptake (Lung): 9.15 % ID/g
- Drug uptake (Intestine): 1.45 % ID/g
- Drug uptake (Liver): 0.72 % ID/g
- Drug uptake (Kidney): 3.75 % ID/g
